This passage reports IC50 results from patent publication US9340590B2 (priority 2011, dated 2016).

What all share (experiment): cell-based
The target of one test is hNav1.3 (Homo sapiens, UniProt Q9NY46). Conditions: IonWorks Quattro, Use; read-out: IWQ Use Nav1.3.
Another test addresses hNav1.5 (Homo sapiens, UniProt Q14524).
Another test addresses hNav1.7 (Homo sapiens, UniProt Q15858). The class given is cell-based. As to conditions: read-out: IWQ Use Nav1.7.
Setting [1] is: IonWorks Quattro, Use, read-out: IWQ Use Nav1.5.

Read-outs that look alike come from different tables or passages of the source. Positions of bridges follow the written chain, without caps; N, C: chain ends. Non-standard residues stand in square brackets, D forms with d. Residues, ends and D or L forms follow the SMILES beside them. Arg(Me2s) = CN=C(NC)NCCC[C@H](N)C(=O)O; 2Pal = N[C@@H](Cc1ccccn1)C(=O)O

Sequence of hNav1.5 (Q14524 whole entry, looked up): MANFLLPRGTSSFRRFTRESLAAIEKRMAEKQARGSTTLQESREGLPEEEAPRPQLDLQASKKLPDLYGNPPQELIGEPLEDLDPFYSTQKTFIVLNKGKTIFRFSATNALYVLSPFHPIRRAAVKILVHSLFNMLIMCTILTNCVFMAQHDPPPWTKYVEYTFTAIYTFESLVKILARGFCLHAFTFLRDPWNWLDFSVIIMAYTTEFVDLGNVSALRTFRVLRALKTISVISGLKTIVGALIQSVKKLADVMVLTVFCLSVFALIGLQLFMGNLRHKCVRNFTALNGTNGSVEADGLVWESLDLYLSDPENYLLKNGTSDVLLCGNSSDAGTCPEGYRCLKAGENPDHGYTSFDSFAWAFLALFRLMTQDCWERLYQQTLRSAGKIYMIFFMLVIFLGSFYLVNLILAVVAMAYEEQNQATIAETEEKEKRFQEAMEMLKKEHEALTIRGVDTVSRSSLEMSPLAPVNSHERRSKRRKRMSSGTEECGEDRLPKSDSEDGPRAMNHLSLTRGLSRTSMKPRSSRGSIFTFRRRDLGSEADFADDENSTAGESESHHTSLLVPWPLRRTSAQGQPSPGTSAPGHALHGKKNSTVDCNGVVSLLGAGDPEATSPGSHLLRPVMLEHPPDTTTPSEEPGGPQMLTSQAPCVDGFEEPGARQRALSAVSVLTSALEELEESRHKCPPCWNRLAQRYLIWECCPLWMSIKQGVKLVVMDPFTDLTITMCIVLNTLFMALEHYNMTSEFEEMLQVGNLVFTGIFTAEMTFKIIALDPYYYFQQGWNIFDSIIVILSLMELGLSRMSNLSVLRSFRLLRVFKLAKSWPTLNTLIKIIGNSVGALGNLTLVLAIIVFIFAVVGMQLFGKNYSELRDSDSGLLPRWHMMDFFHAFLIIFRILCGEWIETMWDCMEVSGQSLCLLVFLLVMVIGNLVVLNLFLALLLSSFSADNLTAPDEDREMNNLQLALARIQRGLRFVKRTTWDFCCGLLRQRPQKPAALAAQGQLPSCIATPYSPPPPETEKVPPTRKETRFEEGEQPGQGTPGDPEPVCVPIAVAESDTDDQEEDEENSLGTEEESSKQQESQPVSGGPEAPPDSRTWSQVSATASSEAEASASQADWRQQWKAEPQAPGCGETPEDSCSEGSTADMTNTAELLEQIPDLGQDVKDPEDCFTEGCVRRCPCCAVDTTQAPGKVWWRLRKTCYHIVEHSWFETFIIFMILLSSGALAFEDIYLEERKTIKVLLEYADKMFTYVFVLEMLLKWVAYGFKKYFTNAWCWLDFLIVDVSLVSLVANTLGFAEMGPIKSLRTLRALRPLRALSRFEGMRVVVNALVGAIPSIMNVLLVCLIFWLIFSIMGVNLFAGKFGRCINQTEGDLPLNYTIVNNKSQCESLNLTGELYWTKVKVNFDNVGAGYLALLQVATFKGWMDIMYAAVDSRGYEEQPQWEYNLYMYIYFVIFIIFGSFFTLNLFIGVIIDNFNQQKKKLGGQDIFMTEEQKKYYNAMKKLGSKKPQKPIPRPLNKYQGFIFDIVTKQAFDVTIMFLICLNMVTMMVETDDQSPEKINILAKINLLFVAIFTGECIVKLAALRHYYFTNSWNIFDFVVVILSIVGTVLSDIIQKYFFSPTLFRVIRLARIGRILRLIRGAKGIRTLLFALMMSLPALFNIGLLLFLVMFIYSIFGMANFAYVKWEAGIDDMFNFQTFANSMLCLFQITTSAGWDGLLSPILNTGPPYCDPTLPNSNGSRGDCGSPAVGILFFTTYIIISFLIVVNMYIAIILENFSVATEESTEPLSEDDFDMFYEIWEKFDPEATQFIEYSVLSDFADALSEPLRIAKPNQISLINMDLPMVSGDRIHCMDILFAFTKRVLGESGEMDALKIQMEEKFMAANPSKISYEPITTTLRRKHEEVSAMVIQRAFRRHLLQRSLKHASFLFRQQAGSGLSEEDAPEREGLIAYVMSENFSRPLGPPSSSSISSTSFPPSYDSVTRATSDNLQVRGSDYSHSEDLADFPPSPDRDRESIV
Sequence of hNav1.7 (Q15858 whole entry, looked up): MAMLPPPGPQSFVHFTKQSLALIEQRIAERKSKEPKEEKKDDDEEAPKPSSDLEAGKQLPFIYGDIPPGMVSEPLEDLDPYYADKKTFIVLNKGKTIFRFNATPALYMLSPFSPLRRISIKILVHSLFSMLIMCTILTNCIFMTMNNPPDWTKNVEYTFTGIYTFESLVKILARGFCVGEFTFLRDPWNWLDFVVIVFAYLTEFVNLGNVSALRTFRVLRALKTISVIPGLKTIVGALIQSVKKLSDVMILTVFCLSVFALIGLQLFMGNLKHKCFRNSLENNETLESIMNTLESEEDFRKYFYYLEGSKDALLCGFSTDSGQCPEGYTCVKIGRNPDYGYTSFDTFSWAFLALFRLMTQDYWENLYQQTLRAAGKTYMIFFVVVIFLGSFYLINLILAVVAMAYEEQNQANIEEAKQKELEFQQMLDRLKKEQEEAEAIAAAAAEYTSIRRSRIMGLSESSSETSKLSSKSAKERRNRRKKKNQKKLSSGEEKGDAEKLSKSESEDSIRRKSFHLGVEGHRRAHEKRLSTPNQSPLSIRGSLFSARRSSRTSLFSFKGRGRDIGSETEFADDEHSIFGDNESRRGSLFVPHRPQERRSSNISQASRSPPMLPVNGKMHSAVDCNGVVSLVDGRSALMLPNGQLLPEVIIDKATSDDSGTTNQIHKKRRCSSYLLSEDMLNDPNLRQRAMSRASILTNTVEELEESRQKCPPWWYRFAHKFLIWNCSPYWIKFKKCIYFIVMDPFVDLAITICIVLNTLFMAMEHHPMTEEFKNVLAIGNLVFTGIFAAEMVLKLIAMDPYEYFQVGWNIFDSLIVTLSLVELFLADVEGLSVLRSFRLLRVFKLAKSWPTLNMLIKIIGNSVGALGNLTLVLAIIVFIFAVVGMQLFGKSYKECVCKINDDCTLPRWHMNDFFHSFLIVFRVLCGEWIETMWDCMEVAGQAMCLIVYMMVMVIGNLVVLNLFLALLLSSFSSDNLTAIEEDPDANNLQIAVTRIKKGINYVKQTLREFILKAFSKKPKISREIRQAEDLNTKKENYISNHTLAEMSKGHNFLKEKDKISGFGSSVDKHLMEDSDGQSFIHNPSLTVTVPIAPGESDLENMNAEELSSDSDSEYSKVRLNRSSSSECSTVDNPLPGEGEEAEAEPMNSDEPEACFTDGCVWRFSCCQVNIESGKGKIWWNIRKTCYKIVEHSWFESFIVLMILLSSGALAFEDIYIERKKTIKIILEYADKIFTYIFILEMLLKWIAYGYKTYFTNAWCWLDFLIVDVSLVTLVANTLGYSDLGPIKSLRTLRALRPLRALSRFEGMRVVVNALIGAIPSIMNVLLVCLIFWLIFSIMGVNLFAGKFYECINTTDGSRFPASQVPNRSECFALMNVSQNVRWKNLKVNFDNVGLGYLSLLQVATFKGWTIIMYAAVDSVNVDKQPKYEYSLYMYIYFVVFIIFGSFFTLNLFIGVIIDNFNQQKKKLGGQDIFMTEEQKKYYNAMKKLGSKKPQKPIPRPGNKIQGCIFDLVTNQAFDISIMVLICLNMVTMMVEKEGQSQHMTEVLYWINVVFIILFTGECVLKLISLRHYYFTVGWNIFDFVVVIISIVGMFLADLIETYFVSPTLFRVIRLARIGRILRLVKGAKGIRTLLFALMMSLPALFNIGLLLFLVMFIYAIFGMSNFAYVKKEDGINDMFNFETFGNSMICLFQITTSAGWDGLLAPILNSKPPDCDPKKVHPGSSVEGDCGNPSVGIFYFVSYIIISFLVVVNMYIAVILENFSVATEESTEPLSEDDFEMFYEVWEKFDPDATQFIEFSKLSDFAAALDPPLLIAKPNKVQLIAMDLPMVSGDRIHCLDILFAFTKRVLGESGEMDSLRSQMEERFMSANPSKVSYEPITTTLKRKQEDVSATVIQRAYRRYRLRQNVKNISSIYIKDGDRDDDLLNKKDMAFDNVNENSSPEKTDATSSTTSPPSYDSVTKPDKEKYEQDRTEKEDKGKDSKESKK

Regarding `CSCC[C@@H]1NC(=O)[C@H](Cc2ccccc2)NC(=O)CNC(=O)[C@H](CC(C)C)NC(=O)[C@@H](NC(=O)[C@@H](N)CC(=O)O)CSSC[C@@H]2NC(=O)[C@@H]3CSSC[C@@H](C(=O)N[C@@H](CCCCN)C(=O)N[C@@H](Cc4ccc(O)cc4)C(=O)N[C@H](C(=O)N[C@@H](Cc4ccccc4)C(N)=O)C(C)C)NC(=O)[C@H](Cc4c[nH]c5ccccc45)NC(=O)[C@H](CCCCN)NC(=O)[C@H](Cc4cnc[nH]4)NC(=O)[C@H]([C@@H](C)O)NC(=O)[C@H](CCCNC(=N)N)NC(=O)[C@H](CO)NC(=O)[C@H](CSSC[C@H](NC(=O)[C@H](CCCCN)NC(=O)[C@H](CCCNC(=N)N)NC1=O)C(=O)N[C@@H](CC(C)C)C(=O)N1CCC[C@H]1C(=O)N[C@@H](CC(=O)O)C(=O)N[C@@H](CC(N)=O)C(=O)N[C@@H](CC(=O)O)C(=O)N[C@@H](CCCCN)C(=O)N3)NC(=O)[C@H](C(C)C)NC(=O)[C@H](CC(C)C)NC(=O)[C@H](CC(N)=O)NC(=O)[C@@H]1CCCN1C(=O)[C@H](CCCNC(=N)N)NC2=O` [compound 303] (H-DCLGFMRKCLPDNDKCCRPNLVCSRTHKWCKYVF-NH2; disulfide 2-17, 9-23, 16-30), the IC50 on hNav1.3 came to 80 nM; on hNav1.5 (setting [1]) it was 8.13 µM; at hNav1.7 (IonWorks Quattro, Use) it was 130 nM.
In the same order, the values of `CSCC[C@@H]1NC(=O)[C@H](Cc2ccccc2)NC(=O)CNC(=O)[C@H](CC(C)C)NC(=O)[C@@H](NC(=O)[C@@H](N)CC(=O)O)CSSC[C@@H]2NC(=O)[C@@H]3CSSC[C@@H](C(=O)N[C@@H](CCCCN)C(=O)N[C@@H](Cc4ccc(O)cc4)C(=O)N[C@H](C(=O)N[C@@H](Cc4ccccc4)C(N)=O)C(C)C)NC(=O)[C@H](Cc4c[nH]c5ccccc45)NC(=O)[C@H](CCCCN)NC(=O)[C@H](Cc4c[nH]cn4)NC(=O)[C@H]([C@@H](C)O)NC(=O)[C@H](CCCNC(=N)N)NC(=O)[C@H](CO)NC(=O)[C@H](CSSC[C@H](NC(=O)[C@H](CCCCN)NC(=O)[C@H](CCCNC(=N)N)NC1=O)C(=O)N1CCC[C@H]1C(=O)N1CCC[C@H]1C(=O)N[C@@H](CC(=O)O)C(=O)N[C@@H](CC(N)=O)C(=O)N[C@@H](CC(=O)O)C(=O)N[C@@H](CCCCN)C(=O)N3)NC(=O)[C@H](C(C)C)NC(=O)[C@H](CC(C)C)NC(=O)[C@H](CC(N)=O)NC(=O)[C@@H]1CCCN1C(=O)[C@H](CCCNC(=N)N)NC2=O` [compound 308] (H-DCLGFMRKCPPDNDKCCRPNLVCSRTHKWCKYVF-NH2; disulfide 2-17, 9-23, 16-30) are 240 nM, > 5 µM and 400 nM.
With `CSCC[C@@H]1NC(=O)[C@H](Cc2ccccc2)NC(=O)CNC(=O)[C@H](CC(C)C)NC(=O)[C@@H](NC(=O)[C@@H](N)CC(=O)O)CSSC[C@@H]2NC(=O)[C@@H]3CSSC[C@@H](C(=O)N[C@@H](CCCCN)C(=O)N[C@@H](Cc4ccc(O)cc4)C(=O)N[C@H](C(=O)N[C@@H](Cc4ccccc4)C(N)=O)C(C)C)NC(=O)[C@H](Cc4c[nH]c5ccccc45)NC(=O)[C@H](CCCCN)NC(=O)[C@H](Cc4c[nH]cn4)NC(=O)[C@H]([C@@H](C)O)NC(=O)[C@H](CCCNC(=N)N)NC(=O)[C@H](CO)NC(=O)[C@H](CSSC[C@H](NC(=O)[C@H](CCCCN)NC(=O)[C@H](CCCNC(=N)N)NC1=O)C(=O)N[C@@H](Cc1ccc(C(=O)O)cc1)C(=O)N1CCC[C@H]1C(=O)N[C@@H](CC(=O)O)C(=O)N[C@@H](CC(N)=O)C(=O)N[C@@H](CC(=O)O)C(=O)N[C@@H](CCCCN)C(=O)N3)NC(=O)[C@H](C(C)C)NC(=O)[C@H](CC(C)C)NC(=O)[C@H](CC(N)=O)NC(=O)[C@@H]1CCCN1C(=O)[C@H](CCCNC(=N)N)NC2=O` [compound 310], the IC50 on hNav1.3 came to 230 nM; on hNav1.5 (setting [1]), 6.87 µM; on hNav1.7 (IonWorks Quattro, Use), 280 nM.
The like results for `CSCC[C@@H]1NC(=O)[C@H](Cc2ccccc2)NC(=O)CNC(=O)[C@H](CC(C)C)NC(=O)[C@@H](NC(=O)[C@@H](N)CC(=O)O)CSSC[C@@H]2NC(=O)[C@@H]3CSSC[C@@H](C(=O)N[C@@H](CCCCN)C(=O)N[C@@H](Cc4ccc(O)cc4)C(=O)N[C@H](C(=O)N[C@@H](Cc4ccccc4)C(N)=O)C(C)C)NC(=O)[C@H](Cc4c[nH]c5ccccc45)NC(=O)[C@H](CCCCN)NC(=O)[C@H](Cc4c[nH]cn4)NC(=O)[C@H]([C@@H](C)O)NC(=O)[C@H](CCCNC(=N)N)NC(=O)[C@H](CO)NC(=O)[C@H](CSSC[C@H](NC(=O)[C@H](CCCCN)NC(=O)[C@H](CCCNC(=N)N)NC1=O)C(=O)N[C@@H](Cc1ccccn1)C(=O)N1CCC[C@H]1C(=O)N[C@@H](CC(=O)O)C(=O)N[C@@H](CC(N)=O)C(=O)N[C@@H](CC(=O)O)C(=O)N[C@@H](CCCCN)C(=O)N3)NC(=O)[C@H](C(C)C)NC(=O)[C@H](CC(C)C)NC(=O)[C@H](CC(N)=O)NC(=O)[C@@H]1CCCN1C(=O)[C@H](CCCNC(=N)N)NC2=O` [compound 311] were, in that order, 40 nM, 8.83 µM and 190 nM.
Take `CC[C@H](C)[C@@H]1NC(=O)[C@@H]2CSSC[C@@H]3NC(=O)[C@H](C(C)C)NC(=O)[C@H](CC(C)C)NC(=O)[C@H](CC(N)=O)NC(=O)[C@@H]4CCCN4C(=O)[C@H](CCCNC(=N)N)NC(=O)[C@H](CSSC[C@H](NC(=O)[C@@H](N)CC(=O)O)C(=O)N[C@@H](CC(C)C)C(=O)NCC(=O)N[C@@H](Cc4ccccc4)C(=O)N[C@@H](CCSC)C(=O)N[C@@H](CCCNC(=N)N)C(=O)N[C@@H](CCCCN)C(=O)N2)NC(=O)[C@H](CSSC[C@@H](C(=O)N[C@@H](CCCCN)C(=O)N[C@@H](Cc2ccc(O)cc2)C(=O)N[C@H](C(=O)N[C@@H](Cc2ccccc2)C(N)=O)C(C)C)NC(=O)[C@H](Cc2c[nH]c4ccccc24)NC(=O)[C@H](CCCCN)NC(=O)[C@H](Cc2c[nH]cn2)NC(=O)[C@H]([C@@H](C)O)NC(=O)[C@H](CCCNC(=N)N)NC(=O)[C@H](CO)NC3=O)NC(=O)[C@H](CCCNC(=NC)NC)NC(=O)[C@H](CC(=O)O)NC(=O)[C@H](CC(N)=O)NC(=O)[C@H](CC(=O)O)NC(=O)[C@@H]2CCCN2C1=O` [compound 312] (H-DCLGFMRKCIPDND[Arg(Me2s)]CCRPNLVCSRTHKWCKYVF-NH2; disulfide 2-17, 9-23, 16-30): the IC50 came to 150 nM on hNav1.3; 9.67 µM at hNav1.5 (setting [1]); 140 nM at hNav1.7 (IonWorks Quattro, Use).
For the compound `CC[C@H](C)[C@@H]1NC(=O)[C@@H]2CSSC[C@@H]3NC(=O)[C@H](C(C)C)NC(=O)[C@H](CC(C)C)NC(=O)[C@H](CC(N)=O)NC(=O)[C@@H]4CCCN4C(=O)[C@H](CCCNC(=N)N)NC(=O)[C@H](CSSC[C@H](NC(=O)[C@@H](N)CC(=O)O)C(=O)N[C@@H](CC(C)C)C(=O)NCC(=O)N[C@@H](Cc4ccccc4)C(=O)N[C@@H](CCSC)C(=O)N[C@@H](CCCNC(=N)N)C(=O)N[C@@H](CCCCN)C(=O)N2)NC(=O)[C@H](CSSC[C@@H](C(=O)N[C@@H](CCCCN)C(=O)N[C@@H](Cc2ccc(O)cc2)C(=O)N[C@H](C(=O)N[C@@H](Cc2ccccc2)C(N)=O)C(C)C)NC(=O)[C@H](Cc2c[nH]c4ccccc24)NC(=O)[C@H](CCCCN)NC(=O)[C@H](Cc2c[nH]cn2)NC(=O)[C@H]([C@@H](C)O)NC(=O)[C@H](CCCNC(=N)N)NC(=O)[C@H](CO)NC3=O)NC(=O)[C@H](CCCCN(C)C)NC(=O)[C@H](CC(=O)O)NC(=O)[C@H](CC(N)=O)NC(=O)[C@H](CC(=O)O)NC(=O)[C@@H]2CCCN2C1=O` [compound 313], the IC50 on hNav1.3 came to 130 nM; against hNav1.5 (IWQ Use Nav1.5 (μM)) it was 10.1 µM; at hNav1.7 (IonWorks Quattro, Use), 190 nM.
On to `CC[C@H](C)[C@@H]1NC(=O)[C@@H]2CSSC[C@@H]3NC(=O)[C@H](C(C)C)NC(=O)[C@H](CC(C)C)NC(=O)[C@H](CC(N)=O)NC(=O)[C@@H]4CCCN4C(=O)[C@H](CCCNC(=NC)NC)NC(=O)[C@H](CSSC[C@H](NC(=O)[C@@H](N)CC(=O)O)C(=O)N[C@@H](CC(C)C)C(=O)NCC(=O)N[C@@H](Cc4ccccc4)C(=O)N[C@@H](CCSC)C(=O)N[C@@H](CCCNC(=N)N)C(=O)N[C@@H](CCCCN)C(=O)N2)NC(=O)[C@H](CSSC[C@@H](C(=O)N[C@@H](CCCCN)C(=O)N[C@@H](Cc2ccc(O)cc2)C(=O)N[C@H](C(=O)N[C@@H](Cc2ccccc2)C(N)=O)C(C)C)NC(=O)[C@H](Cc2c[nH]c4ccccc24)NC(=O)[C@H](CCCCN)NC(=O)[C@H](Cc2c[nH]cn2)NC(=O)[C@H]([C@@H](C)O)NC(=O)[C@H](CCCNC(=N)N)NC(=O)[C@H](CO)NC3=O)NC(=O)[C@H](CCCCN)NC(=O)[C@H](CC(=O)O)NC(=O)[C@H](CC(N)=O)NC(=O)[C@H](CC(=O)O)NC(=O)[C@@H]2CCCN2C1=O` [compound 315], for which the values for the IC50 at hNav1.3, on hNav1.5 (IWQ Use Nav1.5 (μM)) and at hNav1.7 were 100 nM, 10.5 µM and 140 nM, respectively.
With `CC[C@H](C)[C@@H]1NC(=O)[C@@H]2CSSC[C@@H]3NC(=O)[C@H](C(C)C)NC(=O)[C@H](CC(C)C)NC(=O)[C@H](CC(N)=O)NC(=O)[C@@H]4CCCN4C(=O)[C@H](Cc4ccccn4)NC(=O)[C@H](CSSC[C@H](NC(=O)[C@@H](N)CC(=O)O)C(=O)N[C@@H](CC(C)C)C(=O)NCC(=O)N[C@@H](Cc4ccccc4)C(=O)N[C@@H](CCSC)C(=O)N[C@@H](CCCNC(=N)N)C(=O)N[C@@H](CCCCN)C(=O)N2)NC(=O)[C@H](CSSC[C@@H](C(=O)N[C@@H](CCCCN)C(=O)N[C@@H](Cc2ccc(O)cc2)C(=O)N[C@H](C(=O)N[C@@H](Cc2ccccc2)C(N)=O)C(C)C)NC(=O)[C@H](Cc2c[nH]c4ccccc24)NC(=O)[C@H](CCCCN)NC(=O)[C@H](Cc2cnc[nH]2)NC(=O)[C@H]([C@@H](C)O)NC(=O)[C@H](CCCNC(=N)N)NC(=O)[C@H](CO)NC3=O)NC(=O)[C@H](CCCCN)NC(=O)[C@H](CC(=O)O)NC(=O)[C@H](CC(N)=O)NC(=O)[C@H](CC(=O)O)NC(=O)[C@@H]2CCCN2C1=O` [compound 316] (H-DCLGFMRKCIPDNDKCC[2Pal]PNLVCSRTHKWCKYVF-NH2; disulfide 2-17, 9-23, 16-30), the IC50 on hNav1.3 turned out to be 60 nM; at hNav1.5 (setting [1]), 9.17 µM; on hNav1.7 (IonWorks Quattro, Use), 190 nM.
